Reference: US6034066A, “Cysteine protease inhibitors for use in treatment of IGE mediated allergic diseases” (Peptide Therapeutics Limited, priority 1995, dated 2000)

Biological target: T1, Der p I (Dermatophagoides pteronyssinus, UniProt P08176)
T1 construct: tissue SmithKline-Beecham (crude mite extract); host or cells: house dust mite extract, purified on immobilised anti-Der p I antibody 4C1
T1 sequence (P08176 99-320): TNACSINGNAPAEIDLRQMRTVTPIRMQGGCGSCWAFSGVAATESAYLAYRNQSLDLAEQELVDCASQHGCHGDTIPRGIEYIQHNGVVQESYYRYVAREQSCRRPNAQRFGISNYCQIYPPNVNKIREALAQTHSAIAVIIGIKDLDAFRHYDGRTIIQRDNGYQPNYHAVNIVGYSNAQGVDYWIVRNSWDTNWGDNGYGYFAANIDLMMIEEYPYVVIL
Experiment: Cleavage of membrane CD23 on RPMI 8866 B cells by Der p I, FACS with FITC anti-CD23 (Bu38)
Type: cell-based
Details: Der p I pre-incubated 30 min at 37° C. with inhibitor, then added to RPMI 8866 cells; FIG. 1(c)
Source text: We have affinity purified Der p I from dust mite extract and tested its ability to proteolytically cleave CD23 expressed on cultured RPMI 8866 B cells, using FITC labelled monoclonal anti-human CD23 (Bu38). […] The proteolytic activity of Der p I was inhibited by E64 (a cysteine protease inhibitor), but not by alpha-1-antitrypsin (a serine protease inhibitor), thereby confirming the cysteine protease nature of Der p I (FIG. 1c). […] A more detailed description of FIG. 1 is as follows:
Cells were analysed on a FACScan (Becton Dickinson, Oxford, UK) with a linear fluorescence setting of 660 volts. The fluorescence (FL1) profile versus forward scatter (FSC) was used to monitor the cells, the amplification scale was altered according to the level of fluorescence. For each sample 4000 events were collected and then analysed using the flowMATE programme (DAKO, High Wycombe, UK). Data presented are representative of 3 replicate experiments, each point in a to c represents the mean of duplicate determinations, FIG. 1(a). Dose and cysteine dependency of CD23 cleavage by Der p I (for method of purification see FIG. 1(d) below). Der p I was pre-incubated (15 min at 37° C.) with or without 5 mM cysteine and added to 2-3×10^5 RPMI 8866 cells in a total volume of […] RPMI 1640+10 mM HEPES. […]

Row | Compound | inhibition of membrane CD23 cleavage by Der p I
1 | CC(C)C[C@H](NC(=O)[C@H]1O[C@@H]1C(=O)O)C(=O)NCCCCN=C(N)N (relative stereo) [Compound E64, L-trans-epoxysuccinyl-leucylamido (4-guanidino) butane, reference compound] | completely inhibits
2 | alpha-1-antitrypsin: a naturally occurring human serine protease inhibitor | no such inhibitory effect
